Measurements as given in PubChem BioAssay AID1963863 (Molecular Pharmacology Branch, DTP, NCI, 2024).

System: 931267-113-T-J1-PDC KRAS spheroid with HUVEC/MSC, viability
Assay: Anticancer human tumor 931267-113-T-J1-PDC patient-derived colon adenocarcinoma cell line growth inhibition [KRAS2]
Settings: for IC50: curve of first compound; for viability, T/C: stronger effect = lower value
Description: Multicellular complex tumor spheroid response to RAS pathway inhibitors in combination with a targeted agents in patient-derived cell lines with oncogenic KRAS variants from multiple cancer types
A high-throughput screen of multi-cell type tumor spheroids was designed to identify active combinations of targeted small molecules and KRAS pathway inhibitors. Complex spheroids include a stromal component modeled by human endothelial cells (HUVEC) and fibroblasts modeled by human mesenchymal stem cells (MSCs). The concentration ranges selected for each drug and investigational agent were based upon clinically achievable concentrations if the clinical Cmax of the agent was known.
Compounds. The drugs and investigational agents: BI-3406 (NSC825286), BAY-293 (NSC824723), batoprotafib (TNO155; NSC825523), sotorasib (AMG 510; NSC818433), MRTX1257 (NSC819558), elimusertib (BAY 1895344; NSC800525), molibresib (GSK525762; NSC774829), temuterkib (LY3214996; NSC803410), venetoclax (NSC766270), alisertib (NSC759677), olaparib (NSC753686), talazoparib (NSC767125), erdafitinib (NSC781556), ipatasertib (NSC767898), cabozantinib (NSC761068), nintedanib (NSC756659), abemaciclib (NSC768073), docetaxel (NSC628503), trametinib (NSC758246), and sapanisertib (NSC764658) were obtained from the National Cancer Institute (NCI) Developmental Therapeutics Program Chemical Repository. The FDA-approved anticancer drug set is available from the Developmental Therapeutics Program. […] The stock solutions were prepared in dimethyl sulfoxide (DMSO, Sigma-Aldrich, St. Louis, MO, cat. D2650) at 800-fold the tested concentration and stored at -70 degrees C prior to their use. All drugs and investigational agents were tested over a range starting from a high concentration at or near the clinical Cmax and decreasing in half-log increments. If the clinical Cmax for an agent had not been determined, the highest concentration tested was 10 microM.
Cell Culture. All cells were maintained in an incubator at 37 degrees C and 5% CO2 with 95% humidity. The PDC lines were cultured according to standard operating procedures established by the NCI PDMR (https://pdmr.cancer.gov/sops/default.htm). Briefly, all PDCs were thawed and cultured in Matrigel-coated flasks prepared with a working solution of 1X Ham's F-12 nutrient mix, without supplementation (Invitrogen, Waltham, MA, cat. 11765054), 100 U/mL penicillin-streptomycin (Invitrogen, cat. 15140122), and 2.5% Matrigel (Corning Inc., Corning, NY, cat. 354248) for the first three passages. All PDCs were cultured in complete DMEM/F-12 media containing advanced DMEM/F-12 (Invitrogen, cat. 12634028), 4.9% defined fetal bovine serum, heat inactivated (HyClone Laboratories Inc., Logan, UT, cat. SH30070.03HI), 389 ng/mL hydrocortisone (Sigma-Aldrich, cat. H4001), 9.7 ng/mL human EGF recombinant protein (Invitrogen, cat. PHG0313), 23.4 microg/mL adenine (Sigma-Aldrich, cat. A2786), 97.3 U/mL penicillin-streptomycin (Invitrogen, cat. 15140122), 1.9 mM L-glutamine (Invitrogen, cat. 25030081), and 9.7 microM Y-27632 dihydrochloride (Tocris Bioscience, Bristol, United Kingdom, cat. 1254). The PDCs were cultured in complete DMEM/F12 media without 9.7 microM Y-27632 dihydrochloride for at least two passages prior to the screen. The established cell line HOP-62 was cultured in RPMI 1640 medium, HEPES (Invitrogen, cat. 22400105) with 10% defined fetal bovine serum (HyClone Laboratories Inc., cat. SH30070.03) and 2 mM L-glutamine (Invitrogen, cat. 25030081). The pooled donor HUVEC were cultured in endothelial cell growth medium 2 (PromoCell, Heidelberg, Germany, cat. C-22011) and the hMSC were cultured in mesenchymal stem cell growth medium 2 (PromoCell, cat. C-28009). For all experiments, HUVEC and hMSC were used at passages </=5, while the malignant cell lines were used at passages </=15. […]

[1] = second compound 0.1 µM, first compound 0.0316 µM
[2] = second compound 0.1 µM, first compound 0.1 µM
[3] = second compound 0.1 µM, first compound 0.316 µM
[4] = second compound 0.1 µM, first compound 1 µM
[5] = second compound 0.1 µM, first compound 3.16 µM
[6] = second compound 0.316 µM, first compound 0.0316 µM
[7] = second compound 0.316 µM, first compound 0.1 µM
[8] = second compound 0.316 µM, first compound 0.316 µM
[9] = second compound 0.316 µM, first compound 1 µM
[10] = second compound 0.316 µM, first compound 3.16 µM
[11] = second compound 1 µM, first compound 0.0316 µM
[12] = second compound 1 µM, first compound 0.1 µM
[13] = second compound 1 µM, first compound 0.316 µM
[14] = second compound 1 µM, first compound 1 µM
[15] = second compound 1 µM, first compound 3.16 µM
[16] = second compound 3.16 µM, first compound 0.0316 µM
[17] = second compound 3.16 µM, first compound 0.1 µM
[18] = second compound 3.16 µM, first compound 0.316 µM
[19] = second compound 3.16 µM, first compound 1 µM
[20] = second compound 3.16 µM, first compound 3.16 µM
[21] = second compound 10 µM, first compound 0.0316 µM
[22] = second compound 10 µM, first compound 0.1 µM
[23] = second compound 10 µM, first compound 0.316 µM
[24] = second compound 10 µM, first compound 1 µM
[25] = second compound 10 µM, first compound 3.16 µM
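Further: compound exposure lasted 7 days before the readout.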
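Wherever viability, T/C is given: 100% = DMSO vehicle control viability.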

| SMILES | IC50 (second compound 0.1 µM) [µM] | IC50 (second compound 0.316 µM) [µM] | IC50 (second compound 1 µM) [µM] | IC50 (second compound 3.16 µM) [µM] | IC50 (second compound 10 µM) [µM] | viability, T/C [1] [%] | viability, T/C [2] [%] | viability, T/C [3] [%] | viability, T/C [4] [%] | viability, T/C [5] [%] | viability, T/C [6] [%] | viability, T/C [7] [%] | viability, T/C [8] [%] | viability, T/C [9] [%] | viability, T/C [10] [%] | viability, T/C [11] [%] | viability, T/C [12] [%] | viability, T/C [13] [%] | viability, T/C [14] [%] | viability, T/C [15] [%] | further results |
| --- | --- | --- | --- | --- | --- | --- | --- | --- | --- | --- | --- | --- | --- | --- | --- | --- | --- | --- | --- | --- | --- |
| CC(=O)OC12COC1CC(O)C1(C)C(=O)C(O)C3=C(C)C(OC(=O)C(O)C(NC(=O)OC(C)(C)C)c4ccccc4)CC(O)(C(OC(=O)c4ccccc4)C21)C3(C)C (stereo not given) + C=CC(=O)N1CCN(c2nc(=O)n(-c3c(C)ccnc3C(C)C)c3nc(-c4c(O)cccc4F)c(F)cc23)C(C)C1 | > 3.16 | > 3.16 | > 3.16 | > 3.16 | > 3.16 | 96.3 | 83.3 | 82.9 | 84.2 | 102 | 116 | 110 | 77.6 | 110 | 119 | 106 | 103 | 81 | 117 | 90.6 | viability, T/C (second compound 0.1 µM, first compound 0.01 µM): 93.1%; viability, T/C (second compound 0.316 µM, first compound 0.01 µM): 94.4%; viability, T/C (second compound 1 µM, first compound 0.01 µM): 102%; viability, T/C (second compound 3.16 µM, first compound 0.01 µM): 103%; viability, T/C [16]: 93.9%; viability, T/C [17]: 91.1%; viability, T/C [18]: 96.8%; viability, T/C [19]: 99.6%; viability, T/C [20]: 113%; viability, T/C (second compound 10 µM, first compound 0.01 µM): 87.1%; viability, T/C [21]: 116%; viability, T/C [22]: 98.7%; viability, T/C [23]: 110%; viability, T/C [24]: 116%; viability, T/C [25]: 113% |
| COc1cc(Nc2ncc3c(n2)-c2ccc(Cl)cc2C(c2c(F)cccc2OC)=NC3)ccc1C(=O)O + CNCc1ccccc1-c1csc(C(C)Nc2nc(C)nc3cc(OC)c(OC)cc23)c1 | > 10 | > 10 | < 0.0316 | < 0.0316 | < 0.0316 | 78.9 | 87 | 85.5 | 72.3 | 87.4 | 122 | 106 | 154 | 86.6 | 77.5 | 18.7 | 36.5 | 18.4 | 26 | 25.9 | viability, T/C (second compound 0.1 µM, first compound 10 µM): 62.1%; viability, T/C (second compound 0.316 µM, first compound 10 µM): 64.2%; viability, T/C (second compound 1 µM, first compound 10 µM): 25.6%; viability, T/C [16]: 0.23%; viability, T/C [17]: 0.31%; viability, T/C [18]: 0.33%; viability, T/C [19]: 0.21%; viability, T/C [20]: 0.2%; viability, T/C (second compound 3.16 µM, first compound 10 µM): 0.35%; viability, T/C [21]: 0.26%; viability, T/C [22]: 0.16%; viability, T/C [23]: 0.23%; viability, T/C [24]: 0.16%; viability, T/C [25]: 0.16%; viability, T/C (second compound 10 µM, first compound 10 µM): 0.31% |
